The values below come from patent publication US4868204A, “Mycalamide compounds, compositions thereof and methods of preparation and use” (Harbor Branch Oceanographic Institution, Inc., priority 1988, dated 1989).

Data set [1] deals with antimitotic activity. Particulars: British Pat. Nos. 1,078,049 and 932,875; cited from earlier work.
The test system of data set [2] is A59. Further details: species or system mice. Particulars: mouse, in vivo, 0.1 mg/kg.
For data set [3], the system named is mice. As to conditions: mouse, in vivo.
Data set [4] has as its system B16 murine melanoma. As to the kind of experiment: in vivo B16 murine melanoma assay. The protocol:
(§1) Antitumor effectiveness of mycalamide A was also evaluated using a standardized in vivo procedure by injecting mice with the test material starting 24 hours after P338 tumor implantation. A T/C value is calculated using the formula % T/C=Median survival of test group/Median survival of control group×100%, A T/C value above 130% is considered significant.
In vivo antitumor activity of mycalamide A was also tested with an B16 murine melanoma assay resulting in the following data: […]

In data set [5] the test system is P388 mouse leukemia cell. As to the kind of experiment: in vitro P388 mouse leukemia cell assay. Type of data set: cell-based. Particulars: 50% inhibition of cell replication vs untreated cultures. The protocol:
Antitumor effectiveness of the compounds of the invention was evaluated using a standardized in vitro P388 mouse leukemia cell assay protocol disclosed in U.S. Pat. No. 4,731,366 with the antitumor activity being expressed in IC50 (concentration that results in 50% inhibition of cell replication normalized to untreated cultures) determined with a log-log transform of data and expressed as xx ng/ml. As an example, for mycalamide A the P388 assay value was […]

Data set [6] relates to P338 tumor. As to the kind of experiment: in vivo P388 tumor procedure in mice (% T/C). On the procedure: as §1

Molecules are shown by their SMILES. Like-named read-outs stand apart in the source and are kept apart here.

On to `C=C1C[C@](OC)([C@H](O)C(=O)N[C@@H](OC)[C@@H]2C[C@@H](O)C(C)(C)[C@@H](C[C@@H](COC)OC)O2)O[C@H](C)[C@@H]1C` [Pederin, pederin], for which, in data set [1], the antimitotic activity entry was “shows antimitotic activity”.

With `C=C1C[C@](OC)([C@H](O)C(=O)N[C@H]2OCO[C@H]3[C@@H]2O[C@H](C[C@H](O)CO)C(C)(C)[C@@H]3OC)O[C@H](C)[C@@H]1C` [mycalamide A, Mycalamide A], the Cumulative mortality is reported as 0% in data set [2]; 0% in data set [3] (0.01 mg/kg, 48 h); 0% in data set [3] (0.01 mg/kg, 96 h); 0% in data set [3] (0.01 mg/kg, 144 h); 0% in data set [3] (0.01 mg/kg, 192 h); 0% in data set [3] (0.01 mg/kg, 240 h). Besides, the Cumulative mortality in data set [3] (0.01 mg/kg, 288 h) came to 0%; in data set [3] (0.01 mg/kg, 336 h), 0%; in data set [3] (0.1 mg/kg, 48 h) it was 0%; in data set [3] (0.1 mg/kg, 96 h) it was 0%; in data set [3] (0.1 mg/kg, 144 h), 0%; in data set [3] (0.1 mg/kg, 192 h), 0%. Also, the Cumulative mortality in data set [3] (0.1 mg/kg, 240 h) was 0%; in data set [3] (0.1 mg/kg, 288 h), 0%; in data set [3] (0.1 mg/kg, 336 h), 0%; in data set [3] (1 mg/kg, 48 h) it was 0%; in data set [3] (1 mg/kg, 96 h), 0%; in data set [3] (1 mg/kg, 144 h), 100%. Besides, the Cumulative mortality is given as 100% in data set [3] (1 mg/kg, 192 h); 100% in data set [3] (1 mg/kg, 240 h); 100% in data set [3] (1 mg/kg, 288 h); 100% in data set [3] (1 mg/kg, 336 h). For the same compound, the Cures in data set [4] (0.0625 mg/kg), in data set [4] (0.125 mg/kg) and in data set [4] (0.5 mg/kg) was 0 in each case. The “Median T/C %” value in data set [4] (0.0625 mg/kg) is listed as 197%; in data set [4] (0.125 mg/kg) it was 189%; in data set [4] (0.5 mg/kg) it was “Toxic”; in data set [6] (0.0012 mg/kg, 2nd series) it was 117%; in data set [6] (0.0025 mg/kg, 1st series), 137%; in data set [6] (0.0025 mg/kg, 2nd series) it was 122%. Besides, the “Median T/C %” value in data set [6] (0.005 mg/kg, 1st series) is on record as 132%; in data set [6] (0.005 mg/kg, 2nd series) it was 133%; in data set [6] (0.01 mg/kg, 1st series), 116%; in data set [6] (0.01 mg/kg, 2nd series), 156%; in data set [6] (0.02 mg/kg, 1st series), “Toxic”; in data set [6] (0.02 mg/kg, 2nd series), 106%. Also, the “P388 IC50” value in data set [5] turned out to be 1.6 ng/mL.
